Read-outs that look alike come from different tables or passages of the source. Each block holds one compound with its values, some of them ahead of it.
Legend:
[1] = system: NNR subtypes that characterize the human ganglia; assay: Nicotinic function in adrenal chromaffin tissue; type: cell-based; conditions: ganglionic NNR subtypes
From the text: (§1) It is advantageous that the treatment or prevention of diseases, disorders and conditions occurs without appreciable adverse side effects (e.g., significant increases in blood pressure and heart rate, significant negative effects upon the gastro-intestinal tract, and significant effects upon skeletal muscle). […] Thus, Compound A is capable of treating and/or preventing diseases, disorders and conditions without eliciting significant side effects associated with activity at ganglionic and neuromuscular sites.

[2] = Animal study: plasma pharmacokinetics of Compound A and metabolite Compound B after sublingual or oral administration of the Compound A solid composition; conditions: for Cmax, relative difference in exposure sublingual compared to oral / AUC, relative difference in exposure sublingual compared to oral: 100*sublingual value/oral value; for AUC, relative difference in exposure sublingual compared to oral: AUC for Compound A; for AUC(0-t) / AUC / Cmax / Tmax / half-life / concentration at 5 min: male, beagle, dog, plasma, 13 mg; for AUC(0-t): AUC (0-8 h); for AUC(0-t) / AUC / Cmax / Tmax / half-life: Example 6 tablet; for AUC: zero to infinity; for half-life: T½; for concentration at 5 min: plasma concentration at 5 minutes
Description: (§3) Two male Beagle dogs weighing 13-15 kg were used in the study. At one occasion the dogs were administered the sublingual composition under the tongue (i.e. as intended) and at the other occasion, after a washout period of 7 days, they were given the sublingual composition orally (i.e. into the stomach by gavage together with 40 ml of water).
(§4) The dogs were fasted overnight and until four hours after dose administration. Water was allowed ad lib until one hour before dosing and after three hours following dosing. To minimize the chance of swallowing during the sublingual study occasion, the dogs were anesthetized by intravenous bolus injection of Diprivan (10 mg/ml, AstraZeneca, Sweden) 0.8-1 ml/kg, followed by intubation, connection to a respiratory ventilator (Servo ventilator 900C, Siemens-Elema AB, Sweden) and capnograph (RespSense, MedAir AB, Sweden) and given additional anesthesia with 1.5% Isofluran (Isoba Vet., Schering-Plough AB, Sweden). The dogs were kept anesthetized for one hour after the administration of the sublingual composition under the tongue. The dogs were not anesthetized during the oral administration occasion.
(§5) Venous blood samples (2 mL) were collected before (0) and after 5, 15, 30, 45 minutes, 1.0, 1.5, 2.0, 3.0, 4.0, 6.0 and 8.0 hours after dosing. The samples were collected into vacuum tubes (BD Vacutainer K2-EDTA, Becton&Dickinson AB, Sweden), placed on ice and centrifuged for 10 minutes (4° C., 1500 g) within 30 minutes after sampling. The plasma was then transferred to 1.8 ml Nunc Cryo tubes (InterMed A/S, Denmark) and frozen (−20° C.) pending analysis.
(§6) The plasma samples (50 μL) were analyzed for Compound A and its metabolite Compound B by a standard LC-MS/MS analytical method. The determinations of the concentration of Compound A and Compound B in plasma was performed by liquid-liquid extraction followed by reversed-phase liquid chromatography and tandem mass spectrometry. Determinations of both Compound A and Compound B were performed in the range 0.8 to 200 nmol/L. Samples outside the range of determination were diluted up to 10 times. Quality control samples at three concentrations were interspersed with the study samples at 2.40, 16.0 and 160 nmol/L. The internal standard used in the assay was Deuterium labeled Compound A (AstraZeneca R&D, Sweden).
(§7) Exposure of animals to Compound A and it's metabolite Compound B expressed as area under the curve from time zero to the last sampling time, AUC(0-8 h), was obtained by means of non compartmental analysis in WinNonlin (version 4.0, Pharsight Corporation, USA). The maximum concentration, Cmax, and time of maximum concentration, Tmax, were direct observations from the plasma concentration versus time data. AUC(0-8 h) was calculated by means of the linear up-log down method. The area under the curve from zero to infinity, AUC, was calculated in a similar manner, with extrapolation from time of the last observed concentration, tlast, to infinity by adding the ratio of Cpred (predicted plasma concentration at tlast) and terminal slope factor. The terminal slope factor and subsequently the terminal half life (T1/2) were estimated in WinNonlin by log linear regression of the terminal phase (4 data points were used) of the plasma concentration time curve.

[3] = Solubility / Biopharmaceutical Classification System (BCS) class; type: physicochemical
From the text: (§2) Thus, the dissolution and intestinal permeability is not the reason for the observed high intersubject variability in plasma concentrations of Compound A.

[4] = dose range 2 to 320 mg, healthy volunteers; cited from earlier work
[5] = Intestinal permeability (fraction of an oral dose absorbed); type: in vivo
From the text: as §2

[6] = Beagle dogs, cited from earlier work
muscle-type NNRs = assay: Nicotinic function in cell preparations expressing muscle-type NNRs; type: cell-based; conditions: skeletal muscle NNR
From the text: as §1

in vivo = conditions: male, beagle, dog, 13 mg; for AUC(0-t): AUC (0-8 h)
Description: as §3, §4, §5, §6, §7

[7] = male, beagle, dog, in vivo, 13 mg
Description: as §3, §4, §5, §6, §7

[8] = Sublingual, Subject 1, anesthetized dog, 13 mg Compound A
[9] = Sublingual, Subject 2, anesthetized dog, 13 mg Compound A
[10] = po, Oral (gavage), Subject 1, dog, 13 mg Compound A
[11] = po, Oral (gavage), Subject 2, dog, 13 mg Compound A

Cmax, relative difference in exposure sublingual compared to oral ([2]; Subject 1, dog): 740 % difference | AUC, relative difference in exposure sublingual compared to oral ([2]; Subject 1, dog): 550 % difference | Cmax, relative difference in exposure sublingual compared to oral ([2]; Subject 2, dog): 510 % difference | AUC, relative difference in exposure sublingual compared to oral ([2]; Subject 2, dog): 520 % difference | AUC(0-t) [2, 8]: 2 µM·h | AUC(0-t) [2, 9]: 1.5 µM·h | AUC [2, 8]: 2.1 µM·h | AUC [2, 9]: 1.5 µM·h | Cmax [2, 8]: 1400 nM | Cmax [2, 9]: 610 nM | Tmax [2, 8]: 0.5 h | Tmax [2, 9]: 1 h | half-life [2, 8]: 1.3 h | half-life [2, 9]: 1.4 h | concentration at 5 min ([2]; other: sublingual, 5 minutes after sublingual administration, Subject 1, dog): ~200 nM | concentration at 5 min ([2]; other: sublingual, 5 minutes after sublingual administration, Subject 2, dog): ~60 nM | AUC(0-t) [2, 10]: 0.37 µM·h | AUC(0-t) [2, 11]: 0.28 µM·h | AUC [2, 10]: 0.38 µM·h | AUC [2, 11]: 0.29 µM·h | Cmax [2, 10]: 190 nM | Cmax [2, 11]: 120 nM | Tmax ([2]; po, Oral (gavage), Subject 1, dog, 13 mg (as base) Compound A hydroxybenzoate salt): 0.75 h | Tmax [2, 11]: 1 h | half-life [2, 10]: 1.3 h | half-life [2, 11]: 1.3 h | concentration at 5 min ([2]; po, 5 minutes after oral administration, Subject 1, dog): ~2 nM | concentration at 5 min ([2]; po, 5 minutes after oral administration, Subject 2, dog): ~1.5 nM | Biopharmaceutical Classification System (BCS) class [3]: Class I | solubility ([3]; highest dose strength is easily dissolved in 250 ml of aqueous media at all physiological pH values): very good solubility | intestinal permeability: oral dose absorbed [5]: more than 90%
Structure (SMILES): CN[C@@H](C)C/C=C/c1cncc(OC(C)C)c1 [Compound A, (2S)-(4E)-N-methyl-5-(3-(5-isopropoxypyridin)yl)-4-penten-2-amine]
ability to elicit nicotinic function in adrenal chromaffin tissue [1]: lack of ability to elicit nicotinic function | degree of exposure after oral administration [4]: intersubject variability in the degree of exposure | oral bioavailability ([6]; oral): about 30% | total plasma clearance relative to hepatic blood flow [6]: markedly higher than the hepatic blood flow | ability to elicit nicotinic function in cell preparations expressing muscle-type NNRs (muscle-type NNRs): lack of ability to elicit nicotinic function

Structure (SMILES): CC(C)Oc1cncc(/C=C/C[C@H](C)N)c1 [Compound B, (4E)-5-(3-(5-isopropoxypyridin)yl)-4-penten-2-amine]
AUC(0-t) (in vivo): 0.51 µM·h | Cmax (in vivo): 99 nM | Tmax (in vivo): 4 h | AUC(0-t) (in vivo; po): 1 µM·h | Cmax (in vivo; po): 210 nM | Tmax (in vivo; po): 1.5 h | AUC (0-8 h) [7]: 0.59 µM·h | Cmax [7]: 110 nM | Tmax [7]: 6 h | decrease of exposure (Cmax, AUC 0-8 h) following sublingual compared to oral administration of Compound A [7]: 30-70% | AUC (0-8 h) ([7]; po): 1 µM·h | Cmax ([7]; po): 230 nM | Tmax ([7]; po): 1 h
